Values quoted from earlier work, collected in US6921754B2, “Compositions containing folic acid and reduced folate” (BASF Aktiengesellschaft, priority 2000, dated 2005).

System: neural tube defects (NTDs) in neonates
Conditions: supplementation of pregnant women with 0.4 to 4 mg of folic acid/day (Hages et al., 1996)

For `Nc1nc2ncc(CNc3ccc(C(=O)N[C@@H](CCC(=O)O)C(=O)O)cc3)nc2c(=O)[nH]1` [folic acid, N-[4-(2-Amino-3,4-dihydro-4-oxo-6-pteridinylmethylamino)-benzoyl]-L-glutamic acid], the “decrease in the frequency of abnormalities in newborn infants” value is given as 50-80%.
